Where “and” joins values, the source holds several entries; their conditions need not be identical. Equal values may be shown once. Read-outs that look alike come from different tables or passages of the source.

Experiment [1] concerns sebaceous glands of the left ear. Briefly: Topical antiandrogenic activity, ear sebaceous glands model in the male hamster. Type of experiment: in vivo. As to conditions: Mesocricetus auratus, 336 h, topical on left pinna, read-out: Antiandrogenic activity in Hamster Ear Area Inh Vs Cx (%); for inhibition in vivo at 0.01 mg: 10 μg daily for 14 days; for inhibition in vivo at 0.1 mg: 100 μg daily for 14 days. On the procedure: The antiandrogenic activity of compounds for topical use was determined using the ear sebaceous glands model in the male hamster.
Male Golden Syrian Hamsters (SYR) of 110-120 g were obtained from Harlan Sprague-Dawley (Madison, USA) and housed up to 2 per plastic cage in a temperature (22±3° C.) and light (12 h light/day, lights on at 7 h15)-controlled environment. The hamsters were fed with Certified Rodent Diet 5002 (pellet) and had access to tap water ad libitum. The animals were acclimatized for at least five days prior to beginning the study. Animals were randomly assigned to groups of eight hamsters. One group of hamsters were castrated under isoflurane-induced anesthesia on the day of dosing initiation (SD 1) and used as control group.
To evaluate the antiandrogenic activity, the tested compounds were applied topically on the inner part of the left ear, once daily, for 14 days. […] For animals of the castrated and intact control groups, one ten-μL vehicle was applied onto the left ear. No solution was applied on the right ear.
On Study Day 15, the hamsters were euthanized by cervical dislocation under isoflurane anesthesia. The left and right ears were collected attached together by the head skin, flat fixed on a paper and then immersed in 10% neutral buffered formalin. Punctures making a circular hole of 6 mm were made on the flat fixed ear in the region where the solution has been applied. These punch-made specimens were collected from each ear. Using a scalpel blade, the collected 6 mm round ear specimens were cut in the middle between the two cartilage ridges. The two equal parts of the ear round specimens were embedded in paraffin. After processing the tissue, the two parts were vertically embedded parallel to each other in such a way that the flat 6 mm area was facing out. From each paraffin block, one section (5 μm thick) was cut and collected on a glass slide. Thus, each slide contained two elongated sections of 6 mm length. Slides were stained with hematoxylin and eosin.
Using the video camera and the lens number X5 of the light microscope, the resulting field appearing on the screen has a length of 0.953 mm. When the first 6 mm long section was examined from the left to the right, the first and second fields were ignored and the third and fourth fields were captured for analysis by the image analyzer. Each field has the length of 0.953 mm. With the help of the screen mouse, the sebaceous glands within the whole field length (0.953 mm) were marked. Also, an area having the length of the whole field and the height between stratum granulosum and the upper edge of the cartilage was drawn.
The total area of the sebaceous glands (μm^2) in each examined field was calculated by the Image Analyser. We also measured the total area, which has the length of 0.953 mm and the height between stratum granulosum and the cartilage. In addition, the percentage of the area occupied by the glands was obtained. Thus, for each ear, two sections were cut and two fields from each section were analyzed. The total of the four readings was averaged and the mean standard error of the mean was calculated by the image analyzer. The results were expressed in μm^2 as the total surface of glands per field and also as percentage of the area occupied by the glands in the tissue.

The target of another experiment is T1, Human Androgen Receptor (Homo sapiens, UniProt P10275).
T1 sequence (P10275 1-920): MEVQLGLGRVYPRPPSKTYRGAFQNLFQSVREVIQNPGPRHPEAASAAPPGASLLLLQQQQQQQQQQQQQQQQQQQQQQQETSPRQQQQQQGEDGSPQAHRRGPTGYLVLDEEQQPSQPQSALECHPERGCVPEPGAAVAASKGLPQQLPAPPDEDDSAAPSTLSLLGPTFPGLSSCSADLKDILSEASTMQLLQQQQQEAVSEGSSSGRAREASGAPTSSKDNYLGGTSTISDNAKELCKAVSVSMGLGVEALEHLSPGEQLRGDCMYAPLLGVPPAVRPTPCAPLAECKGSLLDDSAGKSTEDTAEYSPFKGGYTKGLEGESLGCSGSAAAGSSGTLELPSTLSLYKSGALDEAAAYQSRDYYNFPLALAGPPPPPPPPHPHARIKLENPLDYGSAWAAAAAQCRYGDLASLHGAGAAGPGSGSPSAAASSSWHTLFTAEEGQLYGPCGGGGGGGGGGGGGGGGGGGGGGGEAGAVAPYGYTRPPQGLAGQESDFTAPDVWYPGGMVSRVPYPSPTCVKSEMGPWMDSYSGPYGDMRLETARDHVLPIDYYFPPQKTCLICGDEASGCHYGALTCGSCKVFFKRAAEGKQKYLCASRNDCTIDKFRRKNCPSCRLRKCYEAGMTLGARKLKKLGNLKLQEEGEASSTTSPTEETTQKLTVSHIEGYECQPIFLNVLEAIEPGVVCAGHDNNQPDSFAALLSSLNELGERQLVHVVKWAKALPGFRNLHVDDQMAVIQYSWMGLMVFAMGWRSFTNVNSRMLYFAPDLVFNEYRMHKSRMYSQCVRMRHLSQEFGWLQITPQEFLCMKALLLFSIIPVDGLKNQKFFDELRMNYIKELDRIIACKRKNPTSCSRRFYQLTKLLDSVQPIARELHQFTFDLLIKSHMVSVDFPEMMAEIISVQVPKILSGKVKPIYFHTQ
Briefly: Androgen receptor binding assay (hydroxylapatite, [3H]R1881, cytosol of transfected HEK-293 cells). As to conditions: for RBA human: Table 4, relative to R1881; for Androgen Receptor Binding (%) Human RBA R1881 = 100: % RBA=100×IC50 R1881/IC50 compound, transfected cells.

The subject of another experiment is rat prostate. Briefly: Systemic antiandrogenic activity, orchidectomized immature male rats with DHT implant: prostate weight. Type of experiment: in vivo. As to conditions: for inhibition in vivo at 0.5 mg: Rattus norvegicus, 168 h.
The test system of experiment [2] is Shionogi mouse mammary carcinoma cells. Briefly: Androgenic/antiandrogenic activity on DHT-stimulated Shionogi cell growth. Type of experiment: cell-based. As to conditions: for IC50: Mus musculus; for Shionogi VS OH-FLU: Table 4, ratio of Ki hydroxyflutamide versus tested compound.
Another experiment relates to rat seminal vesicle. Briefly: Systemic antiandrogenic activity, orchidectomized immature male rats with DHT implant: seminal vesicle weight. Type of experiment: in vivo. As to conditions: for inhibition in vivo at 0.5 mg: Rattus norvegicus, 168 h.
The test system of experiment [3] is ventral prostate, seminal vesicle and levator ani. Briefly: In vivo assessment of SARM effect on immature rats. More on the design: species or system rat. On the procedure:
Immature male rats (Crl:CD(SD)Br) 22 to 24-day old were obtained from Charles-River, Inc. (St-Constant, Quebec, Canada) and housed up to 5 per cage in plastic bins in a temperature (23±1° C.)- and light (12 h light/day, lights on at 7 h15)-controlled environment. The rats were fed rodent chow and tap water ad libitum. The day following their arrival, the animals were orchidectomized (CX) under Isoflurane anesthesia via scrotal route and randomly assigned to groups of 5 animals.
To evaluate the antiandrogenic activity, tested compounds were administered subcutaneously once daily at a dose of 0.5 mg/animal for antiandrogenitic activity or 0.2 mg/animal for androgenic activity for 7 days (SD 1 to 7). Compounds were solubilized (when possible) in dimethylsulfoxide (DMSO, 10% final concentration) and administered as suspension in 0.4% methylcellulose. […] One group of animals received the antiandrogen Flutamide as reference. The animals were killed by cervical dislocation under isoflurane anesthesia on the 8th morning following castration. The ventral prostate and seminal vesicles were rapidly dissected and weighed.

The mark [4] stands for this setting: po, 0.5 mg, per os, read-out: Prostate Rat Inh % inh (0.5 mg, per os).
Where [5] appears, read: read-out: Shionogi IC50 (nM), Table 4, inhibition of DHT-stimulated Shionogi cell number.
Setting [6] is: po, 0.5 mg, per os, read-out: SV RAT Inh % inh (0.5 mg, per os).
The mark [7] stands for this setting: read-out: Shionogi Antiandrogenic activity IC50 (nM), inhibition of DHT-stimulated Shionogi cell number.
Setting [8] is: 0.5 mg/day s.c., DHT 1-cm length implant.
[9] abbreviates: 0.2 mg/day s.c., absence of exogenous androgens, immature rats.

Consider `CCC(NC1CCCC1)c1cccc(OCC[C@]23CCC4C(CCC5CC(=O)CC[C@@]54C)C2CC[C@@H]3OC)c1` (stereo partly shown) [EM-6640], for which the inhibition in vivo at 0.01 mg in experiment [1] turned out to be 46.3%. The RBA human at Human Androgen Receptor amounted to 438%. Moreover, the inhibition in vivo at 0.5 mg in the experiment with rat prostate (setting [4]) came to 10%; in the experiment on rat seminal vesicle (setting [6]) it was 0%. Moreover, in experiment [2] (setting [5]), the 50% inhibitory concentration (IC50) was 18 nM. The “Shionogi VS OH-FLU” value in experiment [2] was found to be 5.3.

Take `CCCCCN1CCCCC1c1cccc(OCC[C@]23CCC4C(CCC5CC(=O)CC[C@@]54C)C2CC[C@@H]3O)c1` (stereo partly shown) [EM-6494]: the inhibition in vivo at 0.1 mg in experiment [1] amounted to 68%. The “Androgen Receptor Binding (%) Human RBA R1881 = 100” value at Human Androgen Receptor was 63% and 97%. The same compound had an RBA human on Human Androgen Receptor of 97%. Further, the inhibition in vivo at 0.5 mg with rat prostate (setting [4]) worked out at 0%; in the experiment with rat seminal vesicle (setting [6]), 1%. Besides, the IC50 in experiment [2] (setting [7]) and in experiment [2] (setting [5]) was 10.5 nM in each case. In addition, in experiment [2], the “Shionogi VS OH-FLU” value is on record as 5.4.

Consider `CC(NC1CCCC1)c1cccc(OCC[C@]23CCC4C5CCC(=O)C=C5C[C@H](C)C4C2CC[C@@]3(C)O)c1` (stereo in doubt) [EM-7216], for which, at Human Androgen Receptor, the “Androgen Receptor Binding (%) Human RBA R1881 = 100” value is on record as 77%. Moreover, the “inhibition of the stimulated weight of ventral prostate” value in the experiment with rat prostate (setting [8]) was 28%. In the experiment on rat prostate (sc, read-out: IN VIVO Rat s.c. (+DHT) Prostate % inhibition, s.c., 0.5 mg/animal once daily for 7 days, +DHT), the inhibition in vivo at 0.5 mg was 28%. In experiment [3] (setting [9]), the “stimulation of the weight of levator ani” value is reported as 238, the “stimulation of the weight of seminal vesicle” value was found to be 200% and the “stimulation of the weight of ventral prostate” value amounted to 370%. Further, the “inhibition of the stimulated weight of levator ani” value in experiment [3] (setting [8]) is “no inhibiting effect”. Moreover, in the experiment on rat seminal vesicle (setting [8]), the “inhibition of the stimulated weight of seminal vesicle” value was “no inhibiting effect”. The inhibition in vivo at 0.5 mg in the experiment with rat seminal vesicle (sc, read-out: IN VIVO Rat s.c. (+DHT) SV % inhibition, s.c., 0.5 mg/animal once daily for 7 days, +DHT) amounted to 0%.

Consider `CCN(C1CCCCC1)[C@H](C)c1cccc(OCC[C@]23CCC4C(CCC5CC(=O)CC[C@@]54C)C2CC[C@@H]3O)c1` (stereo partly shown) [EM-6414], for which, in experiment [1], the inhibition in vivo at 0.01 mg amounted to 55%. The inhibition in vivo at 0.1 mg in experiment [1] is 64%. Also, the “Androgen Receptor Binding (%) Human RBA R1881 = 100” value at Human Androgen Receptor came out at 121%. For the same compound, the RBA human on Human Androgen Receptor was found to be 71%. For the same compound, the inhibition in vivo at 0.5 mg is 6% in the experiment on rat prostate (setting [4]) and 28% with rat seminal vesicle (setting [6]). In addition, the IC50 in experiment [2] (setting [7]) and in experiment [2] (setting [5]) was 4 nM throughout. Further, the “Shionogi VS OH-FLU” value in experiment [2] was determined as 1.

For the compound `CCC[C@H](NC(CC)CC)c1cccc(OCC[C@]23CCC4C(CCC5CC(=O)CC[C@@]54C)C2CC[C@@H]3O)c1` (stereo in doubt) [EM-6445], the inhibition in vivo at 0.1 mg in experiment [1] came out at 96%. The “Androgen Receptor Binding (%) Human RBA R1881 = 100” value on Human Androgen Receptor came out at 168%. Also, the RBA human on Human Androgen Receptor came out at 336%. Moreover, the results for the inhibition in vivo at 0.5 mg in the experiment with rat prostate (setting [4]) and in the experiment on rat seminal vesicle (setting [6]) were 3% and 0%, respectively. The IC50 in experiment [2] (setting [7]) and in experiment [2] (setting [5]) was 0.2 nM each time. Also, in experiment [2], the “Shionogi VS OH-FLU” value was found to be 231.

As for `CC[C@H](NC1CCCCC1)c1cccc(OCC[C@]23CCC4C(CCC5CC(=O)CC[C@@]54C)C2CC[C@@H]3O)c1` (stereo partly shown) [EM-6415], in experiment [1], the inhibition in vivo at 0.01 mg came out at 52% and the inhibition in vivo at 0.1 mg stood at 84%. Also, on Human Androgen Receptor, the “Androgen Receptor Binding (%) Human RBA R1881 = 100” value came out at 230% and the RBA human was 185%. The inhibition in vivo at 0.5 mg in the experiment on rat prostate (setting [4]) is 14%. Moreover, the concentration for half-maximal inhibition (IC50) in experiment [2] (setting [7]) was found to be 0.47 nM. In experiment [2] (setting [5]), the IC50 stood at 1.4 nM. Besides, the “Shionogi VS OH-FLU” value in experiment [2] was found to be 29. In addition, the inhibition in vivo at 0.5 mg in the experiment on rat seminal vesicle (setting [6]) stood at 0%.

Turning to `COC1CCC2C3CCC4CC(=O)CC[C@]4(C)C3CC[C@]12CCOc1cccc(C(C)(C)NCC(C)C)c1` (stereo partly shown) [EM-6628], the inhibition in vivo at 0.01 mg in experiment [1] was found to be 58.1%. Further, the RBA human on Human Androgen Receptor was found to be 796%. The inhibition in vivo at 0.5 mg in the experiment on rat prostate (setting [4]) was 15%; with rat seminal vesicle (setting [6]), 0%. Further, in experiment [2] (setting [5]), the IC50 came to 5.9 nM. In experiment [2], the “Shionogi VS OH-FLU” value was 14.

The values are drawn from US9090651B2, “Helix 12 directed pharmaceutical products” (ENDORECHERCHE, INC., priority 2004, dated 2015).
